Data as given in PubChem BioAssay AID248 (DTP/NCI, 2004).
Where “and” joins values, the source holds several entries; their conditions need not be identical. Equal entries are not always repeated. Toxic doses and inconclusive results are not listed. Rule as the data show it: active = T/C of 150% or more; inactive = T/C below 125%.

Test system: L1210 leukemia ip in BDF1 mice, survival T/C
Experiment: NCI In Vivo Anticancer Drug Screen. Data for tumor model L1210 Leukemia (intraperitoneal) in B6D2F1 (BDF1) mice
Details: endpoint: mean survival time, higher = longer survival
Procedure, shortened: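 Ratio derived from survival: compound-dosed mice over vehicle-dosed mice, all bearing a transplantable tumor.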

[1] = dose: 75.0 mg/kg/injection, schedule: Q01DX001 (ip), vehicle: saline
[2] = dose: 150.0 mg/kg/injection, schedule: Q01DX001 (ip), vehicle: saline
[3] = dose: 25.0 mg/kg/injection, schedule: Q04DX002 (ip), vehicle: Klucel (hydroxypropylcellulose) (HPC)
[4] = dose: 50.0 mg/kg/injection, schedule: Q04DX002 (ip), vehicle: Klucel (hydroxypropylcellulose) (HPC)
[5] = dose: 100.0 mg/kg/injection, schedule: Q04DX002 (ip), vehicle: Klucel (hydroxypropylcellulose) (HPC)
[6] = dose: 200.0 mg/kg/injection, schedule: Q04DX002 (ip), vehicle: Klucel (hydroxypropylcellulose) (HPC)
[7] = dose: 400.0 mg/kg/injection, schedule: Q04DX002 (ip), vehicle: Klucel (hydroxypropylcellulose) (HPC)
[8] = dose: 100.0 mg/kg/injection, schedule: Q04DX003 (ip), vehicle: saline
[9] = dose: 200.0 mg/kg/injection, schedule: Q04DX003 (ip), vehicle: saline
[10] = dose: 400.0 mg/kg/injection, schedule: Q04DX003 (ip), vehicle: saline
[11] = dose: 100.0 mg/kg/injection, schedule: Q04DX003 (ip), vehicle: Klucel (hydroxypropylcellulose) (HPC)
[12] = dose: 200.0 mg/kg/injection, schedule: Q04DX003 (ip), vehicle: Klucel (hydroxypropylcellulose) (HPC)
[13] = dose: 100.0 mg/kg/injection, schedule: Q01DX009 (ip), vehicle: Klucel (hydroxypropylcellulose) (HPC)
[14] = dose: 200.0 mg/kg/injection, schedule: Q01DX009 (ip), vehicle: Klucel (hydroxypropylcellulose) (HPC)
[15] = dose: 400.0 mg/kg/injection, schedule: Q01DX009 (ip), vehicle: Klucel (hydroxypropylcellulose) (HPC)
[16] = dose: 400.0 mg/kg/injection, schedule: Q04DX003 (ip), vehicle: Klucel (hydroxypropylcellulose) (HPC)
[17] = dose: 100.0 mg/kg/injection, schedule: Q01DX009 (ip), vehicle: saline with Tween-80
[18] = dose: 100.0 mg/kg/injection, schedule: Q04DX003 (ip), vehicle: saline with Tween-80
[19] = dose: 200.0 mg/kg/injection, schedule: Q01DX009 (ip), vehicle: saline with Tween-80
[20] = dose: 200.0 mg/kg/injection, schedule: Q04DX003 (ip), vehicle: saline with Tween-80
[21] = dose: 400.0 mg/kg/injection, schedule: Q01DX009 (ip), vehicle: saline with Tween-80
[22] = dose: 25.0 mg/kg/injection, schedule: Q04DX003 (ip), vehicle: saline with Tween-80
[23] = dose: 50.0 mg/kg/injection, schedule: Q04DX003 (ip), vehicle: saline with Tween-80
[24] = dose: 100.0 mg/kg/injection, schedule: Q04DX002 (ip), vehicle: saline with Tween-80
[25] = dose: 200.0 mg/kg/injection, schedule: Q04DX002 (ip), vehicle: saline with Tween-80
[26] = dose: 400.0 mg/kg/injection, schedule: Q04DX002 (ip), vehicle: saline with Tween-80

Measured: T/C

CC(=N\NS(=O)(=O)c1ccc(C)cc1)/C(C)=N/NS(=O)(=O)c1ccc(C)cc1
inactive: [1] 87 % of control | [2] 89 % of control | dose: 300.0 mg/kg/injection, schedule: Q01DX001 (ip), vehicle: saline 90 % of control

CC1c2c(c(-c3ccccc3)c3ccccc3c2-c2ccccc2)S1(=O)=O (stereo unspecified)
inactive: [3] 99 % of control | [4] 96 % of control | [5] 94 % of control and 99 % of control and 111 % of control | [6] 94 % of control and 99 % of control and 114 % of control | [7] 99 % of control and 111 % of control

Cc1nonc1C(N)=O
inactive: [5] 109 % of control | [6] 102 % of control | [7] 95 % of control

COc1cc(OCc2ccccc2)c([N+](=O)[O-])cc1OC
inactive: [8] 116 % of control | [9] 124 % of control | [10] 112 % of control

CC12CCC(C1)C(C)(C)C2C(N)=O (stereo unspecified)
inactive: [11] 93 % of control | [12] 93 % of control

COC(=O)C1C(O)C(C)C(O)OC1C(C)C(O)C(C)/C=C\C=C(/C)C(=O)Nc1c(C)c(OC(C)=O)c2c(c1O)C(=O)C(C)=C1OCOC(/C(C)=C/C(C)=O)=C12 (stereo unspecified)
inactive: [8] 95 % of control | [9] 102 % of control | [10] 93 % of control

C/C=C1\CCC2C(=C1C)CC1C2CC=C2CC(OC(C)=O)CCC21C (stereo unspecified)
inactive: [13] 97 % of control | [11] 94 % of control | [14] 87 % of control | [12] 91 % of control | [15] 90 % of control | [16] 93 % of control

O=C(c1ccc(Cl)c(Cl)c1)n1c2ccccc2c2ccccc21
inactive: [8] 102 % of control | [9] 100 % of control | [10] 100 % of control

OC(COC(c1ccccc1)(c1ccccc1)c1ccccc1)C(O)CC1SCCS1 (stereo unspecified)
inactive: dose: 50.0 mg/kg/injection, schedule: Q01DX001 (ip), vehicle: carboxymethylcellulose (CMC) 105 % of control | dose: 100.0 mg/kg/injection, schedule: Q01DX001 (ip), vehicle: carboxymethylcellulose (CMC) 105 % of control | dose: 200.0 mg/kg/injection, schedule: Q01DX001 (ip), vehicle: carboxymethylcellulose (CMC) 94 % of control | dose: 400.0 mg/kg/injection, schedule: Q01DX001 (ip), vehicle: carboxymethylcellulose (CMC) 100 % of control

O=C(O)CSCc1nc2ccccc2[nH]1
inactive: [17] 92 % of control | [18] 101 % of control | [19] 100 % of control | [20] 92 % of control | [21] 96 % of control | dose: 400.0 mg/kg/injection, schedule: Q04DX003 (ip), vehicle: saline with Tween-80 95 % of control

Cc1ccc2c(=O)n(C)c(=O)n(C)c2n1
inactive: [5] 106 % of control | [6] 106 % of control | [7] 106 % of control

O=C1OC(c2ccccc2)(C2(c3ccccc3)OC(=O)c3ccccc32)c2ccccc21 (stereo unspecified)
inactive: [22] 97 % of control | [23] 97 % of control | [18] 90 % of control

CC(OC(=O)CBr)C(C)OC(=O)CBr (stereo unspecified)
inactive: dose: 50.0 mg/kg/injection, schedule: Q01DX001 (sc), vehicle: carboxymethylcellulose (CMC) 98 % of control | dose: 100.0 mg/kg/injection, schedule: Q01DX001 (sc), vehicle: carboxymethylcellulose (CMC) 98 % of control | dose: 200.0 mg/kg/injection, schedule: Q01DX001 (sc), vehicle: carboxymethylcellulose (CMC) 95 % of control | dose: 400.0 mg/kg/injection, schedule: Q01DX001 (sc), vehicle: carboxymethylcellulose (CMC) 98 % of control

Brc1ccc([Si](c2ccccc2)(c2ccccc2)c2ccc(Br)cc2)cc1
inactive: [17] 101 % of control | [19] 93 % of control | [21] 89 % of control

CC=C=[CH][Sn]([CH2]CC)([CH2]CC)[CH2]CC
inactive: [1] 91 % of control

N#C/C(=C\c1cccc2ccccc12)c1ccccc1
inactive: [3] 92 % of control | [4] 98 % of control | [13] 95 % of control | [5] 95 % of control | [14] 93 % of control | [15] 100 % of control

CCN(CC)Cc1cc(Nc2cc(C)nc(Nc3ccc(Cl)c(Cl)c3)n2)ccc1OC
inactive: dose: 12.5 mg/kg/injection, schedule: Q01DX009 (ip), vehicle: saline with Tween-80 98 % of control | dose: 12.5 mg/kg/injection, schedule: Q04DX003 (ip), vehicle: saline with Tween-80 98 % of control | dose: 25.0 mg/kg/injection, schedule: Q01DX009 (ip), vehicle: saline with Tween-80 105 % of control | [22] 100 % of control | dose: 50.0 mg/kg/injection, schedule: Q01DX009 (ip), vehicle: saline with Tween-80 110 % of control | [23] 101 % of control

CCCOP(=O)(OCCC)C(OC(=O)C(C)(C)C)=C(C)C
inactive: [18] 92 % of control | [20] 96 % of control

O=C(Nc1cc(Cl)ccc1Oc1cc(Cl)c(Cl)cc1S(=O)(=O)O)Nc1cc(Cl)ccc1Oc1cc(Cl)c(Cl)cc1S(=O)(=O)O
inactive: dose: 18.75 mg/kg/injection, schedule: Q01DX009 (ip), vehicle: saline 97 % of control | dose: 37.5 mg/kg/injection, schedule: Q01DX009 (ip), vehicle: saline 90 % of control | [1] 106 % of control | dose: 75.0 mg/kg/injection, schedule: Q01DX009 (ip), vehicle: saline 94 % of control | [2] 97 % of control

COc1cc(C=Nc2ccc(C)c(C)c2)ccc1OC(=O)c1ccccc1
inactive: [24] 106 % of control | [25] 106 % of control | [26] 95 % of control

CC(=O)OCCc1ccc([N+](=O)[O-])cc1
inactive: [24] 97 % of control | [25] 93 % of control | [26] 97 % of control

Cc1ccc(C)c(S(N)(=O)=O)c1
inactive: [5] 106 % of control | [6] 100 % of control | [7] 103 % of control

NC(=O)C(NC(=O)c1ccc([N+](=O)[O-])cc1)Sc1ccccc1 (stereo unspecified)
inactive: [5] 109 % of control | [6] 106 % of control | [7] 101 % of control

CC(C)(C)OB(OC(C)(C)C)OC(C)(C)C
inactive: dose: 25.0 mg/kg/injection, schedule: Q01DX009 (ip), vehicle: other 105 % of control | dose: 50.0 mg/kg/injection, schedule: Q01DX009 (ip), vehicle: other 98 % of control | dose: 100.0 mg/kg/injection, schedule: Q01DX009 (ip), vehicle: other 109 % of control | [8] 98 % of control | dose: 200.0 mg/kg/injection, schedule: Q01DX009 (ip), vehicle: other 104 % of control | [9] 102 % of control | [10] 109 % of control

O=C(NC(=S)Nc1ccccc1C(F)(F)F)c1ccccc1F
inactive: [13] 98 % of control and 103 % of control | [5] 105 % of control and 110 % of control | [11] 93 % of control | [14] 98 % of control and 111 % of control | [6] 105 % of control and 90 % of control | [12] 90 % of control | [15] 94 % of control and 108 % of control | [7] 94 % of control and 113 % of control | [16] 91 % of control

C=CCCC1(CCC(C)C)C(=O)NC(=O)NC1=O
inactive: [2] 116 % of control

Nc1nnn(CCO)n1
inactive: dose: 100.0 mg/kg/injection, schedule: Q04DX003 (ip), vehicle: saline sonified 105 % of control | dose: 200.0 mg/kg/injection, schedule: Q04DX003 (ip), vehicle: saline sonified 102 % of control | dose: 400.0 mg/kg/injection, schedule: Q04DX003 (ip), vehicle: saline sonified 96 % of control

C[N+](C)(C)CC1C2C=CC(C2)C1CO (stereo unspecified)
inactive: [8] 110 % of control | [9] 107 % of control | [10] 100 % of control
